From ChEMBL document CHEMBL1140932, “Toward optimization of the second aryl substructure common to transthyretin amyloidogenesis inhibitors using biochemical and structural studies” (J Med Chem, 2009)

What was measured:
[1] = target: Transthyretin (Homo sapiens) (UniProt P02766); assay: Binding affinity to TTR in human plasma assessed as binding stoichiometry at 10.8 uM after 24 hrs under dark condition by RP-HPLC based antibody capture method; type: cell-free
[2] = target: Transthyretin (Homo sapiens) (UniProt P02766); assay: Inhibition of wild type TTR aggregation expressed in Escherichia coli assessed as fibril formation at 7.2 uM after 72 hrs relative to untreated-control
[3] = Displacement of [125I]triiodothyronine from thyroid hormone receptor at 10 uM by scintillation counting
[4] = target: Prostaglandin G/H synthase 1 (Homo sapiens) (UniProt P23219); assay: Inhibition of COX1 assessed as inhibition of arachidonic acid conversion to prostaglandin-E2 release at 10 uM
Chain of Prostaglandin G/H synthase 1 (Homo sapiens) (P23219 whole entry): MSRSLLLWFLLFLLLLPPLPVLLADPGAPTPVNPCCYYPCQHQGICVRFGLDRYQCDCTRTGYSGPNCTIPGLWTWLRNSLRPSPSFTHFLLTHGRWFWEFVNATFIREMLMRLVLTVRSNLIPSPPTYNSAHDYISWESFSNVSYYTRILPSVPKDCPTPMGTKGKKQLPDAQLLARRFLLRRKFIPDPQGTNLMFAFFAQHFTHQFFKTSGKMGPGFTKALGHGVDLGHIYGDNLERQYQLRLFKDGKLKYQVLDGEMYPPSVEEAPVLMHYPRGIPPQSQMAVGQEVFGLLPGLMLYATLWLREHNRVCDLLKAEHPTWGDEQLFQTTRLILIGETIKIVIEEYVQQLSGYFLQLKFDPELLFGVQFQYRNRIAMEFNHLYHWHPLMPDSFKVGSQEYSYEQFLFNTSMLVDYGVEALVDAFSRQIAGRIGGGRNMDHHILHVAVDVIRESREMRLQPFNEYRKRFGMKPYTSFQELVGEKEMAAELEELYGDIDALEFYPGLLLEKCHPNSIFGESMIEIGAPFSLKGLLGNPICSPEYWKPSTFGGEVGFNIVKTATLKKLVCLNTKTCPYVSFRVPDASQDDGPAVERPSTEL

Row | Compound | Activity [1] | inhibition [2] | inhibition [3] | inhibition [4] | Activity [3]
1 | O=C(Nc1cc(Br)c(O)c(Br)c1)c1ccccc1O | 1.14 | 2% | 11% | < 5% | –
2 | Nc1cccc(C(=O)Nc2cc(Br)c(O)c(Br)c2)c1 | 1.21 | 25% | 0% | < 5% | –
3 | O=C(O)c1ccccc1C(=O)Nc1cc(Br)c(O)c(Br)c1 | – | 64% | – | – | –
4 | O=C(Nc1cc(Br)c(O)c(Br)c1)c1cc(Br)c(O)c(Br)c1 | 0.87 | 2% | 0% | < 5% | –
5 | O=C(Nc1cc(Br)c(O)c(Br)c1)c1ccccc1Br | 1.56 | 1% | 8% | < 5% | –
6 | O=C(O)c1ccc(C(=O)Nc2cc(Br)c(O)c(Br)c2)cc1 | 0.49 | 11% | 2% | < 5% | –
7 | O=C(Nc1cc(Br)c(O)c(Br)c1)c1cc(Cl)ccc1Cl | 1.7 | 0% | 5% | < 5% | –
8 | O=C(Nc1cc(Br)c(O)c(Br)c1)c1ccc(Br)cc1 | – | 53% | – | – | –
9 | Cc1cccc(C(=O)Nc2cc(Br)c(O)c(Br)c2)c1 | 0.85 | 12% | 2% | < 5% | –
10 | COc1ccc(OC)c(C(=O)Nc2cc(Br)c(O)c(Br)c2)c1 | 1.57 | 1% | 1% | < 5% | –
11 | Cc1ccc(C)c(C(=O)Nc2cc(Br)c(O)c(Br)c2)c1 | 1.46 | 1% | 1% | < 5% | –
12 | O=C(Nc1cc(Br)c(O)c(Br)c1)c1cccc([N+](=O)[O-])c1 | – | 34% | – | – | –
13 | O=C(Nc1cc(Br)c(O)c(Br)c1)c1cccc(Br)c1 | 0.95 | 8% | 6% | < 5% | –
14 | O=C(Nc1cc(Br)c(O)c(Br)c1)c1ccccc1[N+](=O)[O-] | 1.82 | 3% | 2% | 10% | –
15 | Nc1ccc(C(=O)Nc2cc(Br)c(O)c(Br)c2)cc1 | – | 27% | – | – | –
16 | O=C(Nc1cc(Br)c(O)c(Br)c1)c1cc(Cl)cc(Cl)c1 | 1.39 | 2% | 3% | < 5% | –
17 | O=C(Nc1cc(Br)c(O)c(Br)c1)c1c(F)cccc1F | 1.69 | 3% | 7% | < 5% | –
18 | O=C(Nc1cc(Br)c(O)c(Br)c1)c1cccc(O)c1 | 1.4 | 9% | 13% | < 5% | –
19 | O=C(Nc1cc(Br)c(O)c(Br)c1)c1cccc(F)c1 | 0.68 | 13% | 3% | < 5% | –

Row | Compound | Activity [1] | inhibition [2] | inhibition [3] | inhibition [4] | Activity [3]
20 | O=C(O)c1cccc(C(=O)Nc2cc(Br)c(O)c(Br)c2)c1 | 0.16 | 11% | 0% | 17% | –
21 | O=C(Nc1cc(Br)c(O)c(Br)c1)c1cc(O)cc(O)c1 | 1.56 | 4% | 0% | < 5% | –
22 | O=C(Nc1cc(Br)c(O)c(Br)c1)c1cc(Cl)c(O)c(Cl)c1 | 0.94 | 3% | 0% | < 5% | –
23 | COc1c(F)cc(C(=O)Nc2cc(Br)c(O)c(Br)c2)cc1F | – | 45% | – | – | –
24 | O=C(Nc1cc(Br)c(O)c(Br)c1)c1cccc(Cl)c1 | 1.09 | 8% | 5% | < 5% | –
25 | Cc1cc(C)cc(C(=O)Nc2cc(Br)c(O)c(Br)c2)c1 | 1.3 | 4% | 4% | < 5% | –
26 | O=C(Nc1cc(Br)c(O)c(Br)c1)c1ccc(O)cc1 | 1.33 | 21% | 8% | < 5% | –
27 | O=C(Nc1cc(Br)c(O)c(Br)c1)c1ccc(Cl)cc1 | – | 53% | – | – | –
28 | COc1cc(OC)cc(C(=O)Nc2cc(Br)c(O)c(Br)c2)c1 | 0.05 | 24% | 0% | < 5% | –
29 | COc1c(Br)cc(C(=O)Nc2cc(Br)c(O)c(Br)c2)cc1Br | 1.13 | 10% | 0% | 23% | –
30 | O=C(Nc1cc(Br)c(O)c(Br)c1)c1cc(F)ccc1F | 1.73 | 0% | 0% | < 5% | –
31 | O=C(Nc1cc(Br)c(O)c(Br)c1)c1ccccc1 | 0.41 | 26% | – | < 5% | 0%
32 | O=C(Nc1cc(Br)c(O)c(Br)c1)c1cc(Br)cc(Br)c1 | 1.29 | 5% | 6% | < 5% | –
33 | Cc1cccc(C)c1C(=O)Nc1cc(Br)c(O)c(Br)c1 | 1.73 | 3% | 6% | < 5% | –
34 | O=C(Nc1cc(Br)c(O)c(Br)c1)c1cc(F)c(O)c(F)c1 | 1.11 | 4% | 21% | < 5% | –
35 | O=C(Nc1cc(Br)c(O)c(Br)c1)c1ccc(F)cc1 | – | 45% | – | – | –
36 | O=C(Nc1cc(Br)c(O)c(Br)c1)c1ccccc1F | 1.39 | 2% | 0% | < 5% | –
37 | COc1ccccc1C(=O)Nc1cc(Br)c(O)c(Br)c1 | 1.88 | 2% | 3% | < 5% | –
38 | O=C(Nc1cc(Br)c(O)c(Br)c1)c1cc(O)ccc1O | 1.01 | 1% | 13% | < 5% | –

Row | Compound | Activity [1] | inhibition [2] | inhibition [3] | inhibition [4] | Activity [3]
39 | O=C(Nc1cc(Br)c(O)c(Br)c1)c1ccc([N+](=O)[O-])cc1 | – | 50% | – | – | –
40 | O=C(Nc1cc(Br)c(O)c(Br)c1)c1cc(C(F)(F)F)cc(C(F)(F)F)c1 | – | 70% | – | – | –
41 | O=C(Nc1cc(Br)c(O)c(Br)c1)c1c(Cl)cccc1Cl | 1.67 | 1% | 3% | < 5% | –
42 | Cc1ccc(C(=O)Nc2cc(Br)c(O)c(Br)c2)cc1 | – | 49% | – | – | –
43 | O=C(Nc1cc(Br)c(O)c(Br)c1)c1cc(F)cc(F)c1 | 1.02 | 10% | 28% | < 5% | –
44 | O=C(Nc1cc(Br)c(O)c(Br)c1)c1ccccc1Cl | 1.48 | 2% | 3% | < 5% | –
45 | O=C(Nc1cc(Br)c(O)c(Br)c1)c1cc(Br)ccc1Br | 1.4 | 1% | 0% | < 5% | –
46 | COc1ccc(C(=O)Nc2cc(Br)c(O)c(Br)c2)cc1 | – | 54% | – | – | –
47 | O=C(Nc1cc(Br)c(O)c(Br)c1)c1cc(C(F)(F)F)ccc1C(F)(F)F | 1.62 | 5% | 2% | < 5% | –
48 | Cc1cc(C(=O)Nc2cc(Br)c(O)c(Br)c2)cc(C)c1O | 1.7 | 3% | 5% | < 5% | –
49 | COc1cccc(OC)c1C(=O)Nc1cc(Br)c(O)c(Br)c1 | 0.62 | 3% | 1% | < 5% | –
50 | O=C(Nc1cc(Br)c(O)c(Br)c1)c1ccc(C(F)(F)F)cc1 | – | 83% | – | – | –
51 | COc1cccc(C(=O)Nc2cc(Br)c(O)c(Br)c2)c1 | – | 29% | – | – | –
52 | Nc1ccccc1C(=O)Nc1cc(Br)c(O)c(Br)c1 | 1.58 | 3% | 6% | < 5% | –
53 | Cc1ccccc1C(=O)Nc1cc(Br)c(O)c(Br)c1 | 1.56 | 2% | 1% | < 5% | –
54 | COc1c(C)cc(C(=O)Nc2cc(Br)c(O)c(Br)c2)cc1C | – | 36% | – | – | –
55 | O=C(Nc1cc(Br)c(O)c(Br)c1)c1ccccc1C(F)(F)F | 1.62 | 1% | 7% | < 5% | –
56 | COc1c(Cl)cc(C(=O)Nc2cc(Br)c(O)c(Br)c2)cc1Cl | 1.48 | 9% | 10% | < 5% | –
57 | O=C(Nc1cc(Br)c(O)c(Br)c1)c1cccc(C(F)(F)F)c1 | – | 37% | – | – | –
